In article PMC4864240, “Biotype Characterization, Developmental Profiling, Insecticide Response and Binding Property of Bemisia tabaci Chemosensory Proteins: Role of CSP in Insect Defense” (PLoS ONE, 2016):
Like-named read-outs stand apart in the source and are kept apart here.

Tests used:
Assay in all cases: biochemical
Assay type in all cases: binding
[1] = target: T1, BtabCSP2 (Bemisia tabaci, UniProt H6UKS9); details: for IC50: displacement of 1-NPN
T1 sequence (H6UKS9 22-131): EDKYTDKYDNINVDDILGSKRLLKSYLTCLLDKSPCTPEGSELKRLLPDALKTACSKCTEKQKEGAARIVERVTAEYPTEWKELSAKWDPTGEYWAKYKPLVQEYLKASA
Description: (§1) Protein-ligand binding affinity was determined for the three recombinant proteins. Emission fluorescence spectra were recorded on a Jasco FP-6500 Series fluorescence spectrofluorometer. […] Fluorescence was measured using an exciting wavelength of 337 nm. Emission spectrum was recorded between 350 and 500 nm.

[2] = target: T2, BtabCSP1 (Bemisia tabaci, UniProt D6N3A3)
T2 sequence (D6N3A3 20-126): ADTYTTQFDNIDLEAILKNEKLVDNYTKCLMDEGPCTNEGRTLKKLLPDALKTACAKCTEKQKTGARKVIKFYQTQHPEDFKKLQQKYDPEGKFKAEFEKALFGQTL
Description: as §1

[3] = target: T3, BtabCSP3 (Bemisia tabaci, UniProt A0A097GUB5); details: for IC50: displacement of 1-NPN
T3 sequence (A0A097GUB5 21-138): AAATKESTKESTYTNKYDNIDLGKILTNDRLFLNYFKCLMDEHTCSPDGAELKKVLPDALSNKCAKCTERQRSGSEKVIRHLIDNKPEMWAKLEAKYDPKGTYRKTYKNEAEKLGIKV
Description: as §1

[4] = u.d. = binding constant not calculated, IC50>100 μM, read-out: BtabCSP2 Ki (u.d.)
[5] = u.d. = binding constant not calculated, IC50>100 μM, read-out: BtabCSP1 Ki (u.d.)
[6] = u.d. = binding constant not calculated, IC50>100 μM, read-out: BtabCSP3 Ki (u.d.)
[7] = displacement of 1-NPN, read-out: IC50, BtabCSP1
[8] = BtabCSP1 Ki (u.d.), u.d. = binding constant not calculated, IC50>100 μM
[9] = competitive binding vs 1-NPN, three replicates ± SD, read-out: BtabCSP1 Ki
[10] = BtabCSP1 Ki, competitive binding vs 1-NPN, three replicates ± SD
[11] = competitive binding vs 1-NPN, three replicates ± SD, read-out: BtabCSP3 Ki

Compound: CC1=CCC2C(C1)C2(C)C (stereo not shown) [3-Carene]
- Ki [1, 4]: > 100 µM
- Ki [2, 5]: > 100 µM
- Ki [3, 6]: > 100 µM

Compound: C=CC(=C)CCC=C(C)C [Myrcene]
- Ki [1, 4]: > 100 µM
- IC50 [2, 7]: 14.6 to 95.1 µM
- Ki [2, 5]: > 100 µM
- Ki [3, 6]: > 100 µM

Compound: CCCCCCC=O [Heptanal]
- Ki [1, 4]: > 100 µM
- Ki [2, 5]: > 100 µM
- Ki [3, 6]: > 100 µM

Compound: O=Cc1ccccc1 [Benzaldehyde]
- Ki [1]: > 100 µM
- Ki [2, 8]: > 100 µM
- Ki [3]: > 100 µM

Compound: CCCCCCCCC=O [Nonanal]
- Ki [1, 4]: > 100 µM
- Ki [2, 5]: > 100 µM
- Ki [3, 6]: > 100 µM

Compound: CCCCCCCC=O [Octanal]
- Ki [1, 4]: > 100 µM
- Ki [2, 5]: > 100 µM
- Ki [3, 6]: > 100 µM

Compound: CCCCCCCCCCCCCC(C)=O [2-Pentadecanone]
- Ki [1, 4]: > 100 µM
- Ki [2, 5]: > 100 µM
- Ki [3, 6]: > 100 µM

Compound: CCCCC=O [Valeraldehyde]
- Ki [1, 4]: > 100 µM
- Ki [2, 5]: > 100 µM
- Ki [3, 6]: > 100 µM

Compound: S(-)-Limonene
- Ki [1, 4]: > 100 µM
- Ki [2, 9]: 82.2 ± 3.47 µM
- Ki [3, 6]: > 100 µM

Compound: C=C1CCC2CC1C2(C)C (stereo not drawn) [β-Pinene]
- Ki [1, 4]: > 100 µM
- Ki [2, 5]: > 100 µM
- Ki [3, 6]: > 100 µM

Compound: O=C(O)/C=C/c1ccccc1 [Cinnamic acid]
- Ki [1, 4]: > 100 µM
- Ki [2, 9]: 75.5 ± 2.29 µM
- IC50 [2, 7]: 14.6 to 95.1 µM
- Ki [3, 6]: > 100 µM

Compound: CCCCCCCC(=O)O [Octanoic acid]
- Ki [1, 4]: > 100 µM
- IC50 [2, 7]: 14.6 to 95.1 µM
- Ki [2, 5]: > 100 µM
- Ki [3, 6]: > 100 µM

Compound: CCCCCC [n-Hexane]
- Ki [1]: > 100 µM
- Ki ([2]; BtabCSP1 Ki (u.d.)): > 100 µM
- Ki [3]: > 100 µM

Compound: CCC/C=C/C=O [Trans-2-hexenal]
- Ki [1, 4]: > 100 µM
- Ki [2, 5]: > 100 µM
- Ki [3, 6]: > 100 µM

Compound: C=CC(C)(O)CC/C=C(\C)CCC=C(C)C (racemic) [(+/-)Nerolidol]
- Ki [1, 4]: > 100 µM
- IC50 [2, 7]: 14.6 to 95.1 µM
- Ki [2, 5]: > 100 µM
- Ki [3, 6]: > 100 µM

Compound: CC(=O)/C=C/C1=C(C)CCCC1(C)C [β-Ionone]
- Ki [1]: > 100 µM
- IC50 [2]: 14.6 to 95.1 µM
- Ki [2, 10]: 32.1 ± 1.48 µM
- Ki [3]: > 100 µM

Compound: C=CC(=C)CC/C=C(\C)CCC=C(C)C [E-β-Farnesene]
- Ki [1, 4]: > 100 µM
- Ki [2, 5]: > 100 µM
- Ki [3, 6]: > 100 µM

Compound: CC1=CCC2CC1C2(C)C (stereo not drawn) [α-Pinene]
- Ki [1, 4]: > 100 µM
- Ki [2, 5]: > 100 µM
- Ki [3, 6]: > 100 µM

Compound: CCCCCCCO [1-Heptanol]
- Ki [1, 4]: > 100 µM
- Ki [2, 5]: > 100 µM
- Ki [3, 6]: > 100 µM

Compound: CCCCC/C=C\C/C=C\CCCCCCCC(=O)O [Linoleic acid]
- IC50 [1]: > 100 µM
- Ki [1, 4]: > 100 µM
- Ki [2, 9]: 5.78 ± 0.39 µM
- IC50 [2, 7]: 6.7 ± 0.52 µM
- Ki [3, 11]: 43.5 ± 2.86 µM
- IC50 [3]: 48.5 ± 3.42 µM

Compound: CC12CCC(CC1)C(C)(C)O2 [1,8-Cineole]
- Ki [1, 4]: > 100 µM
- Ki [2, 5]: > 100 µM
- Ki [3, 6]: > 100 µM

Compound: C=C(C)C1CC=C(C)[C@@H](O)C1 (single isomer, unassigned; (-)) [(-)-Carveol]
- Ki [1, 4]: > 100 µM
- Ki [2, 5]: > 100 µM
- Ki [3, 6]: > 100 µM

Compound: C=C1CC/C=C(\C)CC[C@@H]2[C@@H]1CC2(C)C [Caryopyllene]
- Ki [1, 4]: > 100 µM
- Ki [2, 5]: > 100 µM
- Ki [3, 6]: > 100 µM

Compound: CC1(C)[C@H]2CC[C@]1(C)C(=O)C2 [(1S)-(-)-Camphor]
- Ki [2, 9]: 50.8 ± 3.08 µM

Compound: CC(C)=CCC/C(C)=C/CO [Geraniol]
- Ki [1]: > 100 µM
- IC50 [2]: 14.6 to 95.1 µM
- Ki [2, 10]: 39.6 ± 3.01 µM
- Ki [3]: > 100 µM

Compound: CC1=CC=C(C(C)C)CC1 [α-Terpinene]
- Ki [1, 4]: > 100 µM
- IC50 [2, 7]: 14.6 to 95.1 µM
- Ki [2, 5]: > 100 µM
- Ki [3, 6]: > 100 µM

Compound: CCCCCCO [1-Hexanol]
- Ki [1, 4]: > 100 µM
- Ki [2, 9]: 46.8 ± 1.37 µM
- IC50 [2, 7]: 14.6 to 95.1 µM
- Ki [3, 6]: > 100 µM

Compound: CCCC(O)CC (stereo not shown) [3-Hexanol]
- Ki [1, 4]: > 100 µM
- Ki [2, 5]: > 100 µM
- Ki [3, 6]: > 100 µM

Compound: CCCCCCOC(C)=O [Hexyl acetate]
- Ki [1, 4]: > 100 µM
- Ki [2, 5]: > 100 µM
- Ki [3, 6]: > 100 µM

Compound: CC(C)=CCC/C(C)=C/CC/C(C)=C/CO [Trans,trans-Farnesol]
- Ki [1, 4]: > 100 µM
- Ki [2, 5]: > 100 µM
- Ki [3, 6]: > 100 µM

Compound: c1ccc(Nc2cccc3ccccc23)cc1 [1-NPN]
- Kd ([1]; direct titration, Scatchard plot, read-out: binding constant of 1-NPN to CSP2): 20.8 µM
- Kd ([2]; direct titration, Scatchard plot, read-out: binding constant of 1-NPN to CSP1): 11.7 µM
- Kd ([3]; direct titration, Scatchard plot, read-out: binding constant of 1-NPN to CSP3): 15.3 µM

Compound: C=CC(C)=CCC=C(C)C [Ocimene]
- Ki [1, 4]: > 100 µM
- Ki [2, 5]: > 100 µM
- Ki [3, 6]: > 100 µM

Compound: CCCCCCCCCCCC=O [Dodecyl aldehyde]
- Ki [1, 4]: > 100 µM
- Ki [2, 5]: > 100 µM
- Ki [3, 6]: > 100 µM

Compound: CC/C=C\CCO [Z3-Hexen-1-ol]
- Ki [1, 4]: > 100 µM
- Ki [2, 5]: > 100 µM
- Ki [3, 6]: > 100 µM

Compound: CCCCCC(C=O)=Cc1ccccc1 [α-Pentyl-cinnamaldehyde]
- Ki ([1]; competitive binding vs 1-NPN, three replicates ± SD, listed as α-pentyl-cinnamaldehyde, read-out: BtabCSP2 Ki): 10.3 µM
- Ki ([1]; competitive binding vs 1-NPN, three replicates ± SD, read-out: BtabCSP2 Ki): 10.3 ± 1.17 µM
- IC50 [1]: 11.1 µM
- Ki [2, 9]: 12.6 ± 1.3 µM
- Ki ([3]; competitive binding vs 1-NPN, three replicates ± SD, listed as α-pentyl-cinnamaldehyde, read-out: BtabCSP3 Ki): 5.8 µM
- Ki [3, 11]: 5.82 ± 0.31 µM
- IC50 [3]: 6.5 µM

Compound: CC/C=C\CCOC(C)=O [(Z)-3-Hexenyl acetate]
- Ki [1, 4]: > 100 µM
- Ki [2, 5]: > 100 µM
- Ki [3, 6]: > 100 µM

Compound: CCCCCCCCCCC [n-Undecane]
- Ki [1, 4]: > 100 µM
- Ki [2, 5]: > 100 µM
- Ki [3, 6]: > 100 µM

Compound: CC1=CC[C@@H](C(C)(C)O)CC1 [α-Terpineol]
- Ki [1, 4]: > 100 µM
- IC50 [2, 7]: 14.6 to 95.1 µM
- Ki [2, 5]: > 100 µM
- Ki [3, 6]: > 100 µM

Compound: CCCCCCCCCCCCCCC [n-Pentadecane]
- Ki [1, 4]: > 100 µM
- Ki [2, 5]: > 100 µM
- Ki [3, 6]: > 100 µM

Compound: CCCCCC(C)=O [2-Heptanone]
- Ki [1, 4]: > 100 µM
- Ki [2, 9]: 55.3 ± 4.21 µM
- IC50 [2, 7]: 14.6 to 95.1 µM
- Ki [3, 6]: > 100 µM

Compound: C=CCc1ccc(O)c(OC)c1 [Eugenol]
- Ki [1, 4]: > 100 µM
- Ki [2, 5]: > 100 µM
- Ki [3, 6]: > 100 µM

Compound: CCCCCCCCCCCC(=O)O [Lauric acid]
- Ki [1, 4]: > 100 µM
- Ki [2, 9]: 35.2 ± 1.42 µM
- Ki [3, 6]: > 100 µM

Compound: CCC/C=C/CO [Trans-2-hexen-1-ol]
- Ki [1, 4]: > 100 µM
- Ki [2, 9]: 46.1 ± 1.25 µM
- IC50 [2, 7]: 14.6 to 95.1 µM
- Ki [3, 6]: > 100 µM

Compound: CCCCCOC(C)=O [Amyl acetate]
- Ki [1, 4]: > 100 µM
- Ki [2, 5]: > 100 µM
- Ki [3, 6]: > 100 µM

Compound: COC(=O)c1ccccc1O [Methyl salicylate]
- Ki [1, 4]: > 100 µM
- Ki [2, 9]: 60 ± 2.74 µM
- IC50 [2, 7]: 14.6 to 95.1 µM
- Ki [3, 6]: > 100 µM

Compound: Cc1cccc(C)c1 [m-Xylene]
- Ki [1, 4]: > 100 µM
- Ki [2, 9]: 55.5 ± 3.14 µM
- IC50 [2, 7]: 14.6 to 95.1 µM
- Ki [3, 6]: > 100 µM

Compound: CCCCCC=O [n-Hexaldehyde]
- Ki [1, 4]: > 100 µM
- Ki [2, 5]: > 100 µM
- Ki [3, 6]: > 100 µM

Compound: CCCCC(CC)CO (stereo not shown) [2-Ethyl-hexanol]
- Ki [1, 4]: > 100 µM
- Ki [2, 5]: > 100 µM
- Ki [3, 6]: > 100 µM

Compound: CC(=O)CCC=C(C)C [6-Methyl-5-hepten-2-one]
- Ki [1]: > 100 µM
- IC50 [2]: 14.6 to 95.1 µM
- Ki [2, 8]: > 100 µM
- Ki [3]: > 100 µM
